{"source": "paper PMC5641094", "about": "“A peptide antagonist of Prep1-p160 interaction improves ceramide-induced insulin resistance in skeletal muscle cells” (Oncotarget, 2017)", "format_in_all_cases": "cell-based, rat", "key": {"[1]": {"test_system": "PGC-1α and GLUT4 protein expression", "experiment": "PGC-1α and GLUT4 protein expression, Western blot", "procedure": "Figure 5 Effect of Prep1(54-72) peptide on Akt phosphorylation and PGC-1α and GLUT4 protein levels (A-B) L6 control and Prep1 overexpressing cells were stimulated with Insulin (100nM) and/or C2cer (10μM) and incubated with Prep1(54-72). Protein lysates were analyzed by Western blot using antibodies for pAkt, Akt and for the beta-actin, as a loading control. (C) PGC-1α and GLUT4 protein levels were measured by using specific antibodies for these proteins and beta-actin antibody was used as loading control. Blots were detected by ECL and autoradiography. The autoradiographs are representative of four independent experiments. Asterisks denote statistically significant differences (*p<0.05; **p<0.01; ***p<0.001).\n(§1) Total cell lysates were obtained and separated by SDS-PAGE. Briefly, cells were solubilized with lysis buffer containing 50mM HEPES, 150mM NaCl, 10mM EDTA, 10mM Na4P2O7, 2mM sodium orthovanadate, 50mM NaF, 1mM phenylmethylsulfonyl fluoride, 10μg/ml aprotinin, 10μg/ml leupeptin, pH 7.4, and 1% (v/v) Triton X-100. Lysates were clarified by centrifugation at 12,000g for 20 minutes at 4°C. The protein concentrations in the cell lysates were measured using a Bio-Rad DC (detergent compatible) assay. Immunoprecipitation and Western blot analysis have been performed as previously described."}, "[2]": {"test_system": "IRS1 tyrosine phosphorylation", "experiment": "IRS1 tyrosine phosphorylation, immunoprecipitation and Western blot", "conditions": "insulin 100nM; for effect on insulin-stimulated IRS1 tyrosine phosphorylation: L6 cells, C2cer 10μM 18h, with or without Prep1(54-72)", "procedure": "Figure 4 Prep1(54-72) peptide restores the insulin signaling inhibited by C2cer and Prep1 L6 cells were stimulated with insulin (100nM) and incubated with Prep1(54-72) in presence of C2cer at 10μM for 18h (A-B) or stable transfection of Prep1 (C-D). Protein lysates were immunoprecipitated with specific IR or IRS1 antibodies and analyzed by Western blot using antibodies for phosphotyrosines (pY) and beta-actin as loading control. Blots were detected by ECL and autoradiography. The autoradiographs are representative of three independent experiments. Asterisks denote statistically significant differences (*p<0.05; **p<0.01).\nas §1"}, "[3]": {"test_system": "Prep1 and p160 protein levels in L6 cells", "experiment": "Western blot of Prep1 and p160 protein levels in L6 cells", "conditions": "for increase of Prep1 and p160 protein levels: 18h", "procedure": "Figure 1 Effect of ceramides dose-response and time-course on Prep1 and p160 protein levels L6 skeletal muscle cells were treated with different concentration of C2cer (10μM and 100μM for 18h) (A) and for different time (10μM for 6h and 18h) (B). Protein lysates were analyzed by Western blot using antibodies for Prep1, p160 and for the beta-actin, as a loading control. Blots were detected by ECL and autoradiography. The autoradiographs are representative of four independent experiments. Asterisks denote statistically significant differences (*p<0.05; **p<0.01).\nFigure 2 Effect of ceramides on Prep1 and p160 mRNA expression and of Prep1-p160 coprecipitation L6 cells were treated with C2cer (10μM) for 18h and Prep1 (A) or p160 (B) mRNA levels were analyzed by real-time RT-PCR analysis. Data were normalized by the amount of GAPDH mRNA, used as internal control. Bars represent the mean ± SD of three independent experiments, each performed in triplicate. (C) L6 cells were treated with cycloheximide (CHX) at 40μg/mL concentration for 18h and the lysates were analyzed by Western blot with anti-p160 and beta-actin. The autoradiograph shown is representative of three different experiments and subjected to densitometric analysis. (D) Protein lysates from L6 cells treated with C2cer as indicated, were immunoprecipitated with Prep1 antibody and immunoblotted with p160 or Prep1 antibodies. The autoradiograph shown is representative of three different experiments and subjected to densitometric analysis. Asterisks denote statistically significant differences (*p<0.05; **p<0.01).\nFigure 3 Design and in vitro effects of Prep1(54-72) peptide on Prep1/p160 association (A) Binding curves of Prep1(59-72) and Prep1(54-72) peptides to p160_20-160 by ELISA-like assays. Biotinylated peptides at several concentrations were added in triplicate to a 96-well plate coated with p160_20-160 (0.1μM). Experiments were performed at least twice and the average results fitted using GraphPad Prism. […] (B) Competition binding experiments. His6-tagged-p160_20-160 at 0.25μM was incubated with Prep1(59-72) and Prep1(54-72) at concentrations ranging between 0.001÷10μM and added to a 96-well plate coated with Prep1_45-155 (0.10μM). Results are the average of three independent experiments. (C) L6 cells were incubated with increasing concentrations of the fluorescein-conjugated peptide (FITC-Prep1(54-72)) and peptide uptake was detected by FACS analysis of fluorescein-labeled cells. Bars represent the mean ± SD of four independent experiments. (D) L6 muscle cells incubated with Prep1(54-72) were stimulated with C2cer (10μM) for 18h. Protein lysates were immunoprecipitated with Prep1 antibodies and analyzed by Western blot using antibodies for p160 or for Prep1. (E) An aliquot of the lysate was used to measure protein expression of Prep1 and p160 and the beta-actin used as loading control. The blots were detected by ECL and autoradiography. The autoradiograph is representative of three independent experiments. Asterisks denote statistically significant differences (*p<0.05; **p<0.01).\nL6 rat skeletal muscle cells (ATCC, Manassas, VA, USA) were cultured in DMEM supplemented with 10% FBS and 1% penicillin/streptomycin solution at 37°C in a humidified 95% air and 5% CO2 atmosphere (all vol./vol.). […]\nTotal cell lysates were obtained and separated by SDS-PAGE. […] The protein concentrations in the cell lysates were measured using a Bio-Rad DC (detergent compatible) assay. […]"}, "L6 cells": {"test_system": "L6 cells", "experiment": "Glycogen content in L6 cells", "conditions": "for effect on insulin-stimulated glycogen synthesis: insulin 100nM, C2cer 10μM, with or without Prep1(54-72)", "procedure": "Figure 6 Effect of Prep1(54-72) peptide on glycogen content and 2-DG uptake L6 control and Prep1 overexpressing cells were stimulated with Insulin (100nM) and/or C2cer (10μM) and incubated with Prep1(54-72). (A) Glycogen content and (B) 2-DG uptake were measured as described in methods. Bars represent the mean ± SD of three independent experiments. Asterisks denote statistically significant differences (*p<0.05; **p<0.01; ***p<0.001).\nGlycogen was isolated from L6 cells homogenized in 0.1% SDS, saturated with Na2SO4 for 30 minutes at 37°C, followed by ethanol (EtOH) precipitation. Glycogen content was determined as previously described. 2-DG uptake by the L6 cells was measured as previously reported."}, "[4]": {"conditions": "C2cer 10μM 18h, incubated with Prep1(54-72)"}}, "data": [{"compound": "CCCCCCCCCCCCC/C=C/[C@@H](O)[C@H](CO)NC(C)=O", "note": "[C2cer, D-erythro-Sphingosine, N-Acetyl-, reference compound]", "values": [{"measurement": "decrease of PGC-1α and GLUT4 protein expression", "setting": "[1]; L6 cells incubated with C2cer 10μM", "value": "approximately 35%"}, {"measurement": "effect on insulin-stimulated IRS1 tyrosine phosphorylation", "setting": "[2]", "value": "blocked"}, {"measurement": "increase of Prep1 and p160 protein levels", "setting": "[3]; C2cer 10μM", "value": 50, "unit": "%"}, {"measurement": "increase of Prep1 and p160 protein levels", "setting": "[3]; C2cer 100μM", "value": 90, "unit": "%"}, {"measurement": "reduction of insulin-stimulated glycogen content", "setting": "L6 cells; C2cer exposure (abstract)", "value": 1.3, "unit": "fold"}, {"measurement": "effect on insulin-stimulated glycogen synthesis", "setting": "L6 cells", "value": "negatively modulated"}]}, {"compound": "Ac-KQAIYRHPLFPLLALLFEK-NH2 [Prep1(54-72)]", "values": [{"measurement": "effect on decreased PGC-1α and GLUT4 protein expression", "setting": "[1]; L6 cells with C2cer or Prep1 overexpression, Prep1(54-72)", "value": "significantly reverted"}, {"measurement": "effect on insulin-stimulated IRS1 tyrosine phosphorylation", "setting": "[2]", "value": "restored"}, {"measurement": "IRS1 tyrosine phosphorylation in Prep1 overexpressing cells", "setting": "[2]; Prep1L6 cells (stably transfected with Prep1 cDNA), incubated with Prep1(54-72)", "value": "stimulated similarly to the control cells"}, {"measurement": "decrease of ceramide-induced p160 levels", "setting": "[3]; [4]", "value": 25, "unit": "%"}, {"measurement": "effect on ceramide-induced Prep1 levels", "setting": "[3]; [4]", "value": "did not modify"}, {"measurement": "effect on insulin-stimulated glycogen synthesis", "setting": "L6 cells", "value": "recovered the insulin response"}]}]}
